Converted amounts (≈) assume the structure as drawn.
Experiments:
[1] = Inhibition of Mycobacterium marinum recombinant arylamine N-acetyltransferase-mediated acetyl coA hydrolysis at 30 uM by DTNB-based spectrophotometric analysis
[2] = Inhibition of Mycobacterium marinum recombinant arylamine N-acetyltransferase-mediated acetyl coA hydrolysis by DTNB-based spectrophotometric analysis
[3] = Competitive inhibition of Mycobacterium marinum recombinant arylamine N-acetyltransferase-mediated acetyl coA hydrolysis by DTNB-based spectrophotometric analysis
[4] = Inhibition of Pseudomonas aeruginosa arylamine N-acetyltransferase
[5] = test system: Mycobacterium tuberculosis; experiment: Antimycobacterial activity against Mycobacterium tuberculosis after 28 days; format: functional; details: 672 h

SMILES	inhibition [1] [%]	IC50 [2] [µM]	Ki [3] [µM]	IC50 [4] [µM]	MIC [5] [µM]
Fc1ccc(F)c(-c2cc(-c3ccccc3)[nH]n2)c1	53.5	18.8			
COc1ccc(-c2cc(-c3cc(O)ccc3O)n[nH]2)cc1	21.5	> 30			
COc1ccc(-c2cc(-c3cc(O)cc(O)c3)n[nH]2)cc1	15.6	> 30			
COc1ccc(-c2cc(-c3cc(OC)ccc3O)[nH]n2)cc1	65.8	18.5	23.2	9.7	34 (≈ 10.1 µg/mL)
Oc1ccc(F)cc1-c1cc(-c2ccc(F)cc2)[nH]n1	32.7	> 30			
COc1cccc(-c2cc(-c3ccc(F)cc3)[nH]n2)c1	61.2	17.6			
COc1ccc(-c2cc(-c3cccc(OC)c3)n[nH]2)cc1	26.5	> 30			
COc1ccc(-c2cc(-c3cc(F)ccc3F)n[nH]2)cc1	18.9	> 30			
COc1ccc(-c2cc(-c3cc(F)ccc3O)n[nH]2)cc1	46.5	> 30			
COc1ccc(-c2cc(-c3ccccc3)n[nH]2)cc1	26.5	> 30			
COc1ccc(-c2cc(-c3cc(OC)ccc3OC)n[nH]2)cc1	29.2	> 30			
Fc1ccc(-c2cc(-c3cc(F)ccc3F)n[nH]2)cc1	29.7	> 30			
COc1ccc(OC)c(-c2cc(-c3ccccc3)[nH]n2)c1	50.7	11.7			
c1ccc(-c2cc(-c3ccccc3)[nH]n2)cc1	45.2	> 30			
COc1ccc(O)c(-c2cc(-c3ccc(F)cc3)[nH]n2)c1	59.2	21.3			
COc1ccc(O)c(-c2cc(-c3ccccc3)[nH]n2)c1	53.9	12.9			

From ChEMBL document CHEMBL2375319, “Design, synthesis and structure-activity relationships of 3,5-diaryl-1H-pyrazoles as inhibitors of arylamine N-acetyltransferase” (Bioorg Med Chem Lett, 2013)
